What follows are cell lines tested with COC1=CC=C(C=C1)COC2=C(C=C(C=C2)CC3=CN=C(N=C3N)N)OC [GW-2580] + N=C(N)NC(=N)NCCc1ccccc1 [Phenformin] (partner 250 µM) (assay: relative viability (nuclei count vs DMSO), 5 days (fraction); higher = more cells survive). Details: first compound 0.08 µM.
In short: (§1)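 Each reported value is a median over duplicate plates. It expresses relative viability: treated-well nuclei count divided by vehicle-well nuclei count. Lung cancer cell lines in 1536-well plates were dosed by pin tool a day after seeding, alone with one drug or with a fixed anchor-drug dose plus five library-drug doses (not always all listed) in √10 steps, and nuclei were counted after 5 days.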

Cell Line	relative viability
HARA	0.461
HCC-78	0.743
NCI-H322M	0.787
LCLC-97TM1	0.443
NCI-H2009	0.509
A-427	0.407
NCI-H661	0.269
NCI-H1734	0.35
NCI-H460	0.713
NCI-H2347	0.423
SK-LU-1	0.559
NCI-H1395	0.452
201T	0.466
NCI-H1915	0.392
HCC-827	0.451

Same assay, conditions: first compound 0.8 µM

Cell Line	relative viability
HARA	0.524
HCC-78	0.655
NCI-H322M	0.819
LCLC-97TM1	0.469
NCI-H2009	0.45
A-427	0.258
NCI-H661	0.282
NCI-H1734	0.374
NCI-H460	0.576
NCI-H2347	0.482
SK-LU-1	0.731
NCI-H1395	0.484
201T	0.418
NCI-H1915	0.368
HCC-827	0.442

Same assay, conditions: first compound 2.53 µM

Cell Line	relative viability
HARA	0.328
HCC-78	0.543
NCI-H322M	0.866
LCLC-97TM1	0.438
NCI-H2009	0.409
A-427	0.303
NCI-H661	0.282
NCI-H1734	0.38
NCI-H460	0.494
NCI-H2347	0.241
SK-LU-1	0.383
NCI-H1395	0.421
201T	0.461
NCI-H1915	0.362
HCC-827	0.436

Same assay, conditions: first compound 8 µM

Cell Line	relative viability
HARA	0.304
HCC-78	0.583
NCI-H322M	0.782
LCLC-97TM1	0.454
NCI-H2009	0.423
A-427	0.269
NCI-H661	0.271
NCI-H1734	0.359
NCI-H460	0.528
NCI-H2347	0.47
SK-LU-1	0.537
NCI-H1395	0.438
201T	0.433
NCI-H1915	0.38
HCC-827	0.447

Each cell line was assayed with COC1=CC=C(C=C1)COC2=C(C=C(C=C2)CC3=CN=C(N=C3N)N)OC [GW-2580] + CC(=O)c1c(C)c2cnc(Nc3ccc(N4CCNCC4)cn3)nc2n(C2CCCC2)c1=O [Palbociclib] (partner 0.5 µM) in the same assay as above. Details: first compound 0.08 µM.
In short: as §1

Cell Line	relative viability
HARA	0.238
HCC-78	0.459
NCI-H322M	0.5
LCLC-97TM1	0.214
NCI-H2009	0.193
A-427	0.521
NCI-H661	0.414
NCI-H1734	0.364
NCI-H460	0.147
NCI-H2347	0.382
SK-LU-1	0.414
NCI-H1395	0.594
201T	0.388
NCI-H1915	0.608
HCC-827	0.571

Same assay, conditions: first compound 0.8 µM

Cell Line	relative viability
HARA	0.24
HCC-78	0.522
NCI-H322M	0.453
LCLC-97TM1	0.308
NCI-H2009	0.179
A-427	0.534
NCI-H661	0.434
NCI-H1734	0.432
NCI-H460	0.339
NCI-H2347	0.453
SK-LU-1	0.459
NCI-H1395	0.603
201T	0.4
NCI-H1915	0.735
HCC-827	0.531

Same assay, conditions: first compound 2.53 µM

Cell Line	relative viability
HARA	0.265
NCI-H322M	0.476
LCLC-97TM1	0.199
NCI-H2009	0.212
A-427	0.52
NCI-H661	0.388
NCI-H1734	0.37
NCI-H460	0.146
NCI-H2347	0.451
SK-LU-1	0.29
NCI-H1395	0.57
201T	0.375
NCI-H1915	0.597
HCC-827	0.479

Same assay, conditions: first compound 8 µM

Cell Line	relative viability
HARA	0.291
HCC-78	0.5
NCI-H322M	0.29
LCLC-97TM1	0.221
NCI-H2009	0.248
A-427	0.529
NCI-H661	0.326
NCI-H1734	0.311
NCI-H460	0.248
NCI-H2347	0.426
SK-LU-1	0.373
NCI-H1395	0.613
201T	0.351
NCI-H1915	0.492
HCC-827	0.467

What follows are cell lines tested with COC1=CC=C(C=C1)COC2=C(C=C(C=C2)CC3=CN=C(N=C3N)N)OC [GW-2580] + COc1cccc2cc(-c3nc([C@H]4CC[C@H](C(=O)O)CC4)n4ncnc(N)c34)[nH]c12 [OSI-027] (partner 0.5 µM) in the same assay as above. Details: first compound 0.08 µM.
In short: as §1

Cell Line	relative viability
HARA	0.504
HCC-78	0.362
NCI-H322M	0.528
LCLC-97TM1	0.556
NCI-H2009	0.665
A-427	0.453
NCI-H661	0.739
NCI-H1734	0.617
NCI-H460	0.996
NCI-H2347	0.341
SK-LU-1	0.366
NCI-H1395	0.64
201T	0.647
NCI-H1915	0.638
HCC-827	0.848

Same assay, conditions: first compound 0.8 µM

Cell Line	relative viability
HARA	0.452
HCC-78	0.434
NCI-H322M	0.562
LCLC-97TM1	0.614
NCI-H2009	0.707
A-427	0.371
NCI-H661	0.754
NCI-H1734	0.65
NCI-H460	0.864
NCI-H2347	0.364
SK-LU-1	0.347
NCI-H1395	0.689
201T	0.994
NCI-H1915	0.649
HCC-827	0.906

Same assay, conditions: first compound 2.53 µM

Cell Line	relative viability
HARA	0.491
HCC-78	0.337
NCI-H322M	0.634
LCLC-97TM1	0.624
NCI-H2009	0.619
A-427	0.518
NCI-H661	0.644
NCI-H1734	0.582
NCI-H460	0.679
NCI-H2347	0.371
SK-LU-1	0.321
NCI-H1395	0.661
201T	1.09
NCI-H1915	0.626
HCC-827	0.278

Same assay, conditions: first compound 8 µM

Cell Line	relative viability
HARA	0.395
HCC-78	0.337
NCI-H322M	0.538
LCLC-97TM1	0.426
NCI-H2009	0.633
A-427	0.435
NCI-H661	0.543
NCI-H1734	0.537
NCI-H460	0.656
NCI-H2347	0.433
SK-LU-1	0.348
NCI-H1395	0.684
201T	0.797
NCI-H1915	0.598
HCC-827	0.687

Each cell line was assayed with Cc1cnc(Nc2ccc(OCCN3CCCC3)cc2)nc1Nc1cccc(S(=O)(=O)NC(C)(C)C)c1 [Fedratinib] + N=C(N)NC(=N)NCCc1ccccc1 [Phenformin] (partner 250 µM) in the same assay as above. Details: first compound 0.1 µM.
In short: as §1

Cell Line	relative viability
HARA	0.364
HCC-78	0.698
NCI-H322M	0.722
LCLC-97TM1	0.477
NCI-H2009	0.334
A-427	0.26
NCI-H661	0.269
NCI-H1734	0.382
NCI-H460	0.382
NCI-H2347	0.508
SK-LU-1	0.5
NCI-H1395	0.392
201T	0.429
NCI-H1915	0.374
HCC-827	0.388

Same assay, conditions: first compound 0.3162 µM

Cell Line	relative viability
HARA	0.448
HCC-78	0.703
NCI-H322M	0.774
LCLC-97TM1	0.425
NCI-H2009	0.486
A-427	0.298
NCI-H661	0.287
NCI-H1734	0.385
NCI-H460	0.516
NCI-H2347	0.225
SK-LU-1	0.514
NCI-H1395	0.378
201T	0.478
NCI-H1915	0.361
HCC-827	0.42

Same assay, conditions: first compound 1 µM

Cell Line	relative viability
HARA	0.411
HCC-78	0.572
NCI-H322M	0.436
LCLC-97TM1	0.37
NCI-H2009	0.419
A-427	0.147
NCI-H661	0.304
NCI-H1734	0.353
NCI-H460	0.459
NCI-H2347	0.494
SK-LU-1	0.328
NCI-H1395	0.47
201T	0.414
NCI-H1915	0.298
HCC-827	0.464

What follows are cell lines tested with COC1=CC=C(C=C1)COC2=C(C=C(C=C2)CC3=CN=C(N=C3N)N)OC [GW-2580] + CS(=O)(=O)CCNCc1ccc(-c2ccc3ncnc(Nc4ccc(OCc5cccc(F)c5)c(Cl)c4)c3c2)o1 [Lapatinib] (partner 2 µM) in the same assay as above. Details: first compound 0.08 µM.
In short: as §1

Cell Line	relative viability
HARA	0.757
HCC-78	0.917
NCI-H322M	0.547
LCLC-97TM1	1.02
NCI-H2009	0.966
A-427	1.17
NCI-H661	0.448
NCI-H1734	1.17
NCI-H460	1.86
NCI-H2347	1.02
SK-LU-1	0.962
NCI-H1395	0.994
201T	1.09
NCI-H1915	1.13
HCC-827	0.225

Same assay, conditions: first compound 0.8 µM

Cell Line	relative viability
HARA	0.902
HCC-78	1.37
NCI-H322M	0.627
NCI-H2009	0.894
A-427	1.15
NCI-H661	0.647
NCI-H1734	1
NCI-H460	1.31
NCI-H2347	1.03
SK-LU-1	1.14
NCI-H1395	0.95
201T	1.11
NCI-H1915	1.05
HCC-827	0.211

Same assay, conditions: first compound 2.53 µM

Cell Line	relative viability
HARA	0.535
HCC-78	0.439
NCI-H322M	0.592
LCLC-97TM1	0.973
NCI-H2009	0.91
A-427	0.98
NCI-H661	0.378
NCI-H1734	1.01
NCI-H460	0.689
NCI-H2347	0.805
SK-LU-1	0.829
NCI-H1395	0.88
201T	0.983
NCI-H1915	1.04
HCC-827	0.167

Same assay, conditions: first compound 8 µM

Cell Line	relative viability
HARA	0.63
HCC-78	0.752
NCI-H322M	0.573
LCLC-97TM1	0.898
NCI-H2009	0.857
A-427	1.07
NCI-H661	0.459
NCI-H1734	1.01
NCI-H460	1.01
NCI-H2347	0.936
SK-LU-1	0.979
NCI-H1395	0.912
201T	1.06
NCI-H1915	1.03
HCC-827	0.152

Source: the supplement of paper PMC10307832
